The term IC50 denotes the point on the concentration scale where inhibition reaches its midpoint.

Molecules are shown by their SMILES.

Sequence of human recombinant H-PGDS (O60760 whole entry): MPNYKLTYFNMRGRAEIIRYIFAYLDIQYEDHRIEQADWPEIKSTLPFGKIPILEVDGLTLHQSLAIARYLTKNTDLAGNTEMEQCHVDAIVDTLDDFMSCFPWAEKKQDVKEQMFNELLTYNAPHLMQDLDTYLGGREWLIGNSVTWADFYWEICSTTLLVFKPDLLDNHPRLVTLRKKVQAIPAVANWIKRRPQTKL

For this assay, the target named is human recombinant H-PGDS (Homo sapiens, UniProt O60760). As to the kind of experiment: Fluorescence Intensity h-PGDS TBA Enzyme Assay. It counts as biochemical. The note with it: 1:175,000 human recombinant H-PGDS, highest inhibitor concentration typically 1 μM. In outline:
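Recombinant human H-PGDS preincubated 10 min at room temperature with inhibitor in 100 mM Tris pH 8.0, 100 μM MgCl2, 2.5 mM glutathione, 0.5% DMSO; 5.0 μM PGH2 added, stopped after 42 s with FeCl2/citric acid. Remaining PGH2 measured as MDA–TBA fluorescence (ex 530/em 565 nm); IC50 by 4-parameter fit, 11 concentrations.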
In the case of `Cc1nnc(C(C)NC(=O)c2ccc(-c3cccc(F)c3)nc2)[nH]1` (stereo not shown) [Example 138, 6-(3-Fluorophenyl)-N-[1-(5-methyl-4H-1,2,4-triazol-3-yl)ethyl]nicotinamide], the IC50 came to 287 nM. Consider `O=C(NCCN1CCOCC1)c1ccc(-c2cccc(F)c2)nc1` [Example 169, 6-(3-Fluorophenyl)-N-(2-morpholin-4-ylethyl)nicotinamide], for which the IC50 turned out to be 43.5 nM. Turning to `O=C(NCc1ccc(Cl)c(Cl)c1)c1ccc(-c2ccc(F)cc2)nc1` [Example 475, N-(3,4-Dichlorobenzyl)-6-(4-fluorophenyl)nicotinamide], the IC50 was no less than 1000 nM. As for `O=C(NCC1C(=O)Nc2ccc(F)cc21)c1ccc(-c2cccc(F)c2)nc1` (stereo not shown) [Example 534, N-[(5-Fluoro-2-oxo-2,3-dihydro-1H-indol-3-yl)methyl]-6-(3-fluorophenyl)nicotinamide], the IC50 was 1.04 nM.

For `O=C(NCCc1cn2cccnc2n1)c1ccc(-c2cccc(F)c2)nc1` [Example 6, 6-(3-Fluorophenyl)-N-(2-imidazo[1,2-a]pyrimidin-2-ylethyl)nicotinamide], the IC50 worked out at 13 nM. With `O=C(NCc1nnc(Cc2ccccc2)o1)c1ccc(-c2cccc(F)c2)nc1` [Example 57, N-[(5-Benzyl-1,3,4-oxadiazol-2-yl)methyl]-6-(3-fluorophenyl)nicotinamide], the IC50 was determined as 32.8 nM. The figure for `O=C(NCCCNc1ccccn1)c1ccc(-c2ccccc2)nc1` [Example 395, 6-Phenyl-N-[3-(pyridin-2-ylamino)propyl]nicotinamide] is 4.1 nM. `CCOC(=O)CCCCCNC(=O)c1ccc(-c2cccc(F)c2)nc1` [Example 137, Ethyl 6-({[6-(3-fluorophenyl)pyridin-3-yl]carbonyl}amino)hexanoate]: the IC50 turned out to be 11.2 nM. For the molecule `COC(=O)CNC(=O)[C@H](C)NC(=O)c1ccc(-c2ccc(F)cc2)nc1` [Example 263, Methyl N-{[6-(4-fluorophenyl)pyridin-3-yl]carbonyl}-L-alanylglycinate], the IC50 stood at 825 nM. For the molecule `O=C(NCCN1CCCCC1=O)c1ccc(-c2ccc(F)cc2)nc1` [Example 493, 6-(4-Fluorophenyl)-N-[2-(2-oxopiperidin-1-yl)ethyl]nicotinamide], the IC50 was found to be 980 nM. Consider `CCOC(=O)C(CNC(=O)c1ccc(-c2ccc(F)cc2)nc1)C1CCCC1` (stereo not shown) [Example 260, Ethyl 2-cyclopentyl-3-({[6-(4-fluorophenyl)pyridin-3-yl]carbonyl}amino)propanoate], for which the IC50 was found to be 316 nM. Consider `O=C(NCc1nc2cc(F)ccc2[nH]1)c1ccc(-c2cccc(F)c2)nc1` [Example 146, N-[(5-Fluoro-1H-benzimidazol-2-yl)methyl]-6-(3-fluorophenyl)nicotinamide], for which the IC50 worked out at 34 nM. In the case of `O=C(NCC1CC2(CCN(c3cnccn3)CC2)CO1)c1ccc(-c2cccc(F)c2)nc1` (stereo not shown) [Example 54, 6-(3-Fluorophenyl)-N-[(8-pyrazin-2-yl-2-oxa-8-azaspiro[4.5]dec-3-yl)methyl]nicotinamide], the IC50 stood at 13.5 nM.

For `COC(=O)CCNC(=O)c1ccc(-c2cccc(C)c2)nc1` [Example 223, Methyl N-{[6-(3-methylphenyl)pyridin-3-yl]carbonyl}-beta-alaninate], the IC50 worked out at 44.1 nM. To `CN1CCCCC1CNC(=O)c1ccc(-c2cccc(F)c2)nc1` (stereo not shown) [Example 97, 6-(3-Fluorophenyl)-N-[(1-methylpiperidin-2-yl)methyl]nicotinamide] belongs 153 nM; to `Cc1cc(O)nc(CNC(=O)c2ccc(-c3cccc(F)c3)nc2)n1` [Example 115, 6-(3-Fluorophenyl)-N-[(4-hydroxy-6-methylpyrimidin-2-yl)methyl]nicotinamide], 95 nM; to `COC(=O)[C@H](Cc1ccc(Cl)cc1)NC(=O)c1ccc(-c2cccc(F)c2)nc1` [Example 403, Methyl 4-chloro-N-{[6-(3-fluorophenyl)pyridin-3-yl]carbonyl}phenylalaninate], 238 nM. With `COC(=O)[C@H](Cc1ccc(Cl)cc1)NC(=O)c1ccc(-c2ccc(F)cc2)nc1` [Example 509, Methyl 4-chloro-N-{[6-(4-fluorophenyl)pyridin-3-yl]carbonyl}phenylalaninate], the IC50 is no less than 1000 nM. To `CCCOCCCNC(=O)c1ccc(-c2cc(F)cc(OC)c2)nc1` [Example 557, 6-(3-Fluoro-5-methoxypheny)-N-(3-propoxypropyl)nicotinamide] belongs 89.6 nM.

For `CCOC(=O)CC(NC(=O)c1ccc(-c2cccc(F)c2)nc1)c1ccc(Cl)cc1` (stereo not shown) [Example 407, Ethyl 3-(4-chlorophenyl)-3-({[6-(3-fluorophenyl)pyridin-3-yl]carbonyl}amino)propanoate], the IC50 worked out at 149 nM. For the molecule `COC(=O)CCNC(=O)c1ccc(-c2ccc(F)cc2)nc1` [Example 494, Methyl N-{[6-(4-fluorophenyl)pyridin-3-yl]carbonyl}-beta-alaninate], the IC50 was found to be 758 nM. Take `COc1ccc(C(CNC(=O)c2ccc(-c3cccc(C)c3)nc2)N2CCOCC2)cc1` (stereo not shown) [Example 315, N-[2-(4-Methoxyphenyl)-2-morpholin-4-ylethyl]-6-(3-methylphenyl)nicotinamide]: the IC50 was 72.5 nM. The figure for `COc1cccc(-c2ccc(C(=O)NCCc3ccncc3)cn2)c1` [Example 345, 6-(3-Methoxyphenyl)-N-(2-pyridin-4-ylethyl)nicotinamide] is 308 nM; for `NC(=O)[C@H](Cc1ccccc1)NC(=O)c1ccc(-c2cccc(F)c2)nc1` [Example 29, Nalpha-{[6-(3-fluorophenyl)pyridin-3-yl]carbonyl} phenylalaninamide] it is 17.6 nM.

Consider `COc1ccc(C(Cc2cc(C)no2)NC(=O)c2ccc(-c3cccc(F)c3)nc2)cc1OC` (stereo not shown) [Example 55, N-[1-(3,4-Dimethoxyphenyl)-2-(3-methylisoxazol-5-yl)ethyl]-6-(3-fluorophenyl)nicotinamide], for which the IC50 was 11.1 nM.

Take `CC(NC(=O)c1ccc(-c2cccc(F)c2)nc1)c1ccncn1` (stereo not shown) [Example 443, 6-(3-Fluorophenyl)-N-(1-pyrimidin-4-ylethyl)nicotinamide]: the IC50 turned out to be 359 nM. As to `Cc1cc(CNC(=O)c2ccc(-c3cccc(F)c3)nc2)c(C(F)(F)F)o1` [Example 203, 6-(3-Fluorophenyl)-N-{[5-methyl-2-(trifluoromethyl)-3-furyl]methyl}nicotinamide], the concentration for half-maximal inhibition (IC50) was 150 nM. Take `COc1cccc(-c2ccc(C(=O)NC3CCN(Cc4ccc(Cl)c(Cl)c4)C3=O)cn2)c1` (stereo not shown) [Example 296, N-[1-(3,4-Dichlorobenzyl)-2-oxopyrrolidin-3-yl]-6-(3-methoxyphenyl)nicotinamide]: the IC50 was 209 nM.

Regarding `Cc1cccc(-c2ccc(C(=O)NCc3ccc(Br)cc3)cn2)c1` [Example 489, N-(4-Bromobenzyl)-6-(3-methylphenyl)nicotinamide], the IC50 was found to be 214 nM. In the case of `CCn1cc(-c2nnc(CCNC(=O)c3ccc(-c4cccc(F)c4)nc3)o2)cn1` [Example 45, N-{2-[5-(1-Ethyl-1H-pyrazol-4-yl)-1,3,4-oxadiazol-2-yl]ethyl}-6-(3-fluorophenyl)nicotinamide], the IC50 turned out to be 30.7 nM. With `O=C(NCC1(O)CCC1)c1ccc(-c2cccc(F)c2)nc1` [Example 141, 6-(3-Fuorophenyl)-N-[(1-hydroxycyclobutyl)methyl] nicotinamide], the IC50 is 34.5 nM.
